Reference: patent publication US10408843B2, “Compositions and methods for detecting S-nitrosylation and S-sulfinylation” (The Regents of the University of Michigan, priority 2013, dated 2019)

Target: T1, Recombinant human GAPDH (Homo sapiens, UniProt P04406)
T1 construct: 6His; made in house; host or cells: E. coli BL21
Assay: Labeling of recombinant GAPDH (in-gel fluorescence, LC-MS)
Assay type: biochemical
Details: biotin-thiosulfonate modified tryptic peptide
Experimental: FIG. 14. Profiling fluorescein-SO2H reactivity and selectivity on S-nitrosylated GAPDH. Recombinant human GAPDH was resuspended in 6 M urea/PBS, treated with 50 mM iodoacetamide for 30 minutes, and mixed with dimedone, ascorbate, peroxide or NO donor (5 minutes). Fluorescein-SO2H (500 μM) was then added to the GAPDH sample for 45 minutes. S-nitrosylated human GAPDH labeling increases upon incubation with the NO donor MAHMA-NONOate, and decreases following treatment with ascorbate. […] Fluorescein-SO2H labeling is unaffected by pre-incubation with peroxide or dimedone.
FIG. 15. Biotin-SO2H reacts with human GAPDH and forms a thiosulfonate. Recombinant human GADPH was labeled with biotin-SO2H for site-specific analysis of S-nitrosylation by high-resolution mass spectrometry.
Given the efficient and selective conjugation of sulfinic acids and nitrosothiols, recombinant human GAPDH were next purified for targeted analysis of S-sulfinylation with biotin-SO2H. […] Biotin-SO2H-labeled GAPDH protein was digested with trypsin and analyzed by high-resolution mass spectrometry, identifying a biotin-thiosulfonate modified peptide encompassing the GAPDH catalytic cysteine (FIG. 15). […] These studies confirm direct detection of native of S-sulfinylation by sulfinic acid probes for mass spectrometry analysis.
Purified human GAPDH was diluted to 0.2 mg/mL in phosphate buffered saline (pH 7.3), and treated with 20 mM iodoacetamide for 30 minutes. Next, the sample was treated with 100 μM biotin-SO2H. Purified human DJ-1 was diluted to 0.2 mg/mL in PBS, and incubated with 20 mM iodoacetamide to alkylated free thiols. Next, the sample was treated with 2 mM hydrogen peroxide for 20 minutes to promote Cys106 sulfinic acid formation. […] Eluted peptides were analyzed using a Waters Synapt G2-S HDMS time-of-flight mass spectrometer in positive mode. […] MS data was searched using Waters Protein Lynx Global Server v3.0 using the exact mass calculated for the cysteine thiosulfonate modification.

T1 sequence (P04406 whole entry): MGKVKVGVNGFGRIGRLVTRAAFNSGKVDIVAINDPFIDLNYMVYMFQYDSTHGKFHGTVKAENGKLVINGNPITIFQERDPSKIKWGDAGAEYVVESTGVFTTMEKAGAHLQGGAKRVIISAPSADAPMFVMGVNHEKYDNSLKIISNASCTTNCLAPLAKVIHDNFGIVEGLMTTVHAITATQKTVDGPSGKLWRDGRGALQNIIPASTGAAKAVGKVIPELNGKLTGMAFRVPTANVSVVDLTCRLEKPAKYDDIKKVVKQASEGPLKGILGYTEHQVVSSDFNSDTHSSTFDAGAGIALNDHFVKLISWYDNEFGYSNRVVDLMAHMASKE

modified cysteine of GAPDH identified by MS/MS: Cys156
Structure (SMILES): O=C(CCCC[C@@H]1SC[C@@H]2NC(=O)N[C@@H]21)NCCS(=O)O [biotin-SO2H, 2-(5-((3aS,4S,6aR)-2-oxohexahydro-1H-thieno[3,4-d]imidazol-4-yl)pentanamido)ethanesulfinic Acid]
